Key:
Type in all cases: in vivo
[1] = tested on: barnyardgrass (Echinochloa crus-galli, ECHCG); experiment: Pre-emerge test, greenhouse herbicide activity screening; details: pre-emerge, 14 days after application, rating scale 0-100
Outline: (§1)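 Visual ratings on a 0-100 scale (0 no damage, 100 all plants dead) were taken at 14 days after treatment. Rates of 15-1000 g ai/ha in acetone, 187 l/ha, were sprayed onto soil one day after planting (pre-emerge) or onto 2-3 leaf plants with 0.25% v/v surfactant (post-emerge).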

[2] = tested on: green foxtail (Setaria viridis, SETVI); experiment: as above; details: pre-emerge, 14 days after application, rating scale 0-100
Outline: as §1

[3] = tested on: large crabgrass (Digitaria sanguinalis, DIGSA); experiment: as above; details: pre-emerge, 14 days after application, rating scale 0-100
Outline: as §1

[4] = tested on: velvetleaf (Abutilon theophrasti, ABUTH); experiment: as above; details: pre-emerge, 14 days after application, rating scale 0-100
Outline: as §1

[5] = tested on: sicklepod (Cassia obtusifolia, CASOB); experiment: as above; details: pre-emerge, 14 days after application, rating scale 0-100
Outline: as §1

[6] = tested on: johnsongrass (Sorghum halepense, SORHA); experiment: as above; details: pre-emerge, 14 days after application, rating scale 0-100
Outline: as §1

[7] = tested on: ivyleaf morningglory (Ipomoea hederacea, IPOHE); experiment: as above; details: pre-emerge, 14 days after application, rating scale 0-100
Outline: as §1

[8] = tested on: lambsquarters (Chenopodium album, CHEAL); experiment: as above; details: pre-emerge, 14 days after application, rating scale 0-100
Outline: as §1

[9] = tested on: upland rice (Oryza sp., var. Tebonnet, RICE); experiment: Pre-emerge test, crop safety; details: pre-emerge, 14 days after application, rating scale 0-100
Outline: (§2)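 Fourteen days after spraying, crop and weed injury was graded visually from 0, no effect, to 100, every plant dead. Test substances were dissolved in acetone and applied at 15–1000 g ai/ha with a flat-fan nozzle. Application was either pre-emergence, one day after sowing, or post-emergence at the 2–3 leaf stage.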

[10] = tested on: field corn (Zea mays L., var. Dekalb 535, CORN); experiment: Pre-emerge test, crop safety; details: pre-emerge, 14 days after application, rating scale 0-100
Outline: as §2

[11] = tested on: barnyardgrass (Echinochloa crus-galli, ECHCG); experiment: Post-emerge test, greenhouse herbicide activity screening; details: post-emerge, 14 days after application, rating scale 0-100
Outline: (§3)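 Applied at 15–1000 g ai/ha from acetone in 187 l/ha spray volume. Post-emergence applications included 0.25% v/v non-ionic surfactant and reached plants sown 8–21 days before. Pre-emergence applications were incorporated by surface watering. Efficacy or crop damage was rated on a 0–100 scale after 14 days.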

[12] = tested on: green foxtail (Setaria viridis, SETVI); experiment: as above; details: post-emerge, 14 days after application, rating scale 0-100
Outline: as §3

[13] = tested on: large crabgrass (Digitaria sanguinalis, DIGSA); experiment: as above; details: post-emerge, 14 days after application, rating scale 0-100
Outline: as §3

[14] = tested on: velvetleaf (Abutilon theophrasti, ABUTH); experiment: as above; details: post-emerge, 14 days after application, rating scale 0-100
Outline: as §3

[15] = tested on: sicklepod (Cassia obtusifolia, CASOB); experiment: as above; details: post-emerge, 14 days after application, rating scale 0-100
Outline: as §3

[16] = tested on: johnsongrass (Sorghum halepense, SORHA); experiment: as above; details: post-emerge, 14 days after application, rating scale 0-100
Outline: as §3

[17] = tested on: ivyleaf morningglory (Ipomoea hederacea, IPOHE); experiment: as above; details: post-emerge, 14 days after application, rating scale 0-100
Outline: as §3

[18] = tested on: lambsquarters (Chenopodium album, CHEAL); experiment: as above; details: post-emerge, 14 days after application, rating scale 0-100
Outline: as §3

[19] = tested on: redroot pigweed (Amaranthus retroflexus, AMARE); experiment: as above; details: post-emerge, 14 days after application
Outline: as §3

[20] = tested on: common ragweed (Ambrosia artemisizfolia L., AMBEL); experiment: as above; details: post-emerge, 14 days after application, rating scale 0-100
Outline: as §3

[21] = tested on: upland rice (Oryza sp., var. Tebonnet, RICE); experiment: Post-emerge test, crop safety; details: post-emerge, 14 days after application, rating scale 0-100
Outline: as §1

[22] = tested on: field corn (Zea mays L., var. Dekalb 535, CORN); experiment: Post-emerge test, crop safety; details: post-emerge, 14 days after application, rating scale 0-100
Outline: as §1

[23] = tested on: redroot pigweed (Amaranthus retroflexus, AMARE); experiment: Pre-emerge test, greenhouse herbicide activity screening; details: pre-emerge, 14 days after application, rating scale 0-100
Outline: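 Compounds in acetone were track-sprayed at 15-1000 g ai/ha (187 l/ha) on sandy loam pots: pre-emerge one day after seeding, post-emerge at 2-3 leaf stage with 0.25% v/v non-ionic surfactant. Phytotoxicity was rated 14 days later on a 0 (no damage) to 100 (complete death) scale.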

## CCOC(=O)C(Cl)Cc1c(OC)c(Cl)cc(F)c1-c1nn(C)c(C(F)(F)F)c1Cl (stereo not shown) [14-56]
[1]; 63 g ai/ha
  phytotoxicity rating ECHCG: 0
[1]; 250 g ai/ha
  phytotoxicity rating ECHCG: 0
[2]; 63 g ai/ha
  phytotoxicity rating SETVI: 20
[2]; 250 g ai/ha
  phytotoxicity rating SETVI: 70
[3]; 63 g ai/ha
  phytotoxicity rating DIGSA: 30
[3]; 250 g ai/ha
  phytotoxicity rating DIGSA: 40
[4]; 63 g ai/ha
  phytotoxicity rating ABUTH: 30
[4]; 250 g ai/ha
  phytotoxicity rating ABUTH: 60
[5]; 63 g ai/ha
  phytotoxicity rating CASOB: 0
[5]; 250 g ai/ha
  phytotoxicity rating CASOB: 10
[6]; 63 g ai/ha
  phytotoxicity rating SORHA: 0
[6]; 250 g ai/ha
  phytotoxicity rating SORHA: 30
[7]; 63 g ai/ha
  phytotoxicity rating IPOHE: 0
[7]; 250 g ai/ha
  phytotoxicity rating IPOHE: 0
[8]; 63 g ai/ha
  phytotoxicity rating CHEAL: 80
[8]; 250 g ai/ha
  phytotoxicity rating CHEAL: 100
[9]; 63 g ai/ha
  phytotoxicity rating RICE: 10
[9]; 250 g ai/ha
  phytotoxicity rating RICE: 10
[10]; 63 g ai/ha
  phytotoxicity rating CORN: 0
[10]; 250 g ai/ha
  phytotoxicity rating CORN: 0
[11]; 63 g ai/ha
  Post-emerge Herbicidal Activity ECHCG (phytotoxicity rating): 20
[11]; 250 g ai/ha
  Post-emerge Herbicidal Activity ECHCG (phytotoxicity rating): 80
[12]; 63 g ai/ha
  Post-emerge Herbicidal Activity SETVI (phytotoxicity rating): 30
[12]; 250 g ai/ha
  Post-emerge Herbicidal Activity SETVI (phytotoxicity rating): 70
[13]; 63 g ai/ha
  Post-emerge Herbicidal Activity DIGSA (phytotoxicity rating): 10
[13]; 250 g ai/ha
  Post-emerge Herbicidal Activity DIGSA (phytotoxicity rating): 50
[14]; 63 g ai/ha
  Post-emerge Herbicidal Activity ABUTH (phytotoxicity rating): 70
[14]; 250 g ai/ha
  Post-emerge Herbicidal Activity ABUTH (phytotoxicity rating): 100
[15]; 63 g ai/ha
  Post-emerge Herbicidal Activity CASOB (phytotoxicity rating): 30
[15]; 250 g ai/ha
  Post-emerge Herbicidal Activity CASOB (phytotoxicity rating): 40
[16]; 63 g ai/ha
  Post-emerge Herbicidal Activity SORHA (phytotoxicity rating): 30
[16]; 250 g ai/ha
  Post-emerge Herbicidal Activity SORHA (phytotoxicity rating): 70
[17]; 63 g ai/ha
  Post-emerge Herbicidal Activity IPOHE (phytotoxicity rating): 100
[17]; 250 g ai/ha
  Post-emerge Herbicidal Activity IPOHE (phytotoxicity rating): 100
[18]; 63 g ai/ha
  Post-emerge Herbicidal Activity CHEAL (phytotoxicity rating): 99
[18]; 250 g ai/ha
  Post-emerge Herbicidal Activity CHEAL (phytotoxicity rating): 100
[19]; 63 g ai/ha, rating scale 0-100 (0 no damage, 100 complete death)
  Post-emerge Herbicidal Activity AMARE (phytotoxicity rating): 100
[19]; 250 g ai/ha, rating scale 0-100
  Post-emerge Herbicidal Activity AMARE (phytotoxicity rating): 100
[20]; 63 g ai/ha
  Post-emerge Herbicidal Activity AMBEL (phytotoxicity rating): 90
[20]; 250 g ai/ha
  Post-emerge Herbicidal Activity AMBEL (phytotoxicity rating): 80
[21]; 63 g ai/ha
  Post-emerge Herbicidal Activity RICE (crop damage rating): 0
[21]; 250 g ai/ha
  Post-emerge Herbicidal Activity RICE (crop damage rating): 25
[22]; 63 g ai/ha
  Post-emerge Herbicidal Activity CORN (crop damage rating): 10
[22]; 250 g ai/ha
  Post-emerge Herbicidal Activity CORN (crop damage rating): 30
[23]; 63 g ai/ha
  phytotoxicity rating AMARE: 100
[23]; 250 g ai/ha
  phytotoxicity rating AMARE: 100

— patent US6355799B1, “Substituted benzene compounds, process for their preparation, and herbicidal and defoliant compositions containing them” (ISK Americas Incorporated, priority 1997, dated 2002)
